Source: PMC3855329, “A Fluorescence-Based Thermal Shift Assay Identifies Inhibitors of Mitogen Activated Protein Kinase Kinase 4” (PLoS ONE, 2013)
Like-named read-outs stand apart in the source and are kept apart here.

Key:
[1] = molecular target: T1, human MAP2K4-EE (Homo sapiens, UniProt P45985, S257E/T261E); assay: Fluorescence-based thermal shift (FTS) assay; assay type: binding; conditions: for ΔTm at 10 µM: 10 µM compound, mean ± SD
T1 construct: Human MAP2K4-EE (residues 37–399); His tag (pMCSG7 vector, TEV-cleavable) (N); made in house; host or cells: E. coli KRX cells with pGro7 (GroEL/GroES)
T1 sequence (P45985 37-399 S257E/T261E): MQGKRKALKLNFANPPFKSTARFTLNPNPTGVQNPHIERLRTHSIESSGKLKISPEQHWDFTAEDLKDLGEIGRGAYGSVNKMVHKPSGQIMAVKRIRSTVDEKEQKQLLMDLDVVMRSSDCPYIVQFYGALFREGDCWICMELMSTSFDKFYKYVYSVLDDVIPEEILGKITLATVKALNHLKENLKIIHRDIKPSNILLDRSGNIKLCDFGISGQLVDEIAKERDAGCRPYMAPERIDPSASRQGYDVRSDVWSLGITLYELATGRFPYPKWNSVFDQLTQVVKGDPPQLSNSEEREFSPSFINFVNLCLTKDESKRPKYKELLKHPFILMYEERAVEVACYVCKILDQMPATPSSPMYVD
Procedure: Small molecule screening by FTS assay was performed as described previously, [23] but with modifications, using an Echo550 (Labcyte) for compound transfer and a Mosquito (TTP Labtech) to dispense protein into 384 well PCR plates. Purified MAP2K4-EE was appropriately diluted in a buffer containing 100 mM Hepes, pH 7.5, 150 mM NaCl. […] The PCR plates were sealed with optical seal, shaken, and centrifuged after protein and compounds were added. […] Curve fitting, melting temperature calculation and report generation on the raw FTS data were performed using software developed by us. Initial screening with the 2000 compound Spectrum Collection was carried out in a pooled fashion. Specifically, 3 compounds were added at 10 µM concentration to each well and wells with positive Tm shift >2°C were then dissected to identify the responsible compound.

[2] = molecular target: T2, MAP3K1 activated murine MAP2K4 (MAP2K4-AC) (Mus musculus, UniProt P47809); assay: In vitro MAP2K4 kinase assay, p38α MAPK (K53A) substrate, Western blot densitometry; assay type: biochemical
T2 construct: purchased Millipore 14-377
T2 sequence (P47809 1-397): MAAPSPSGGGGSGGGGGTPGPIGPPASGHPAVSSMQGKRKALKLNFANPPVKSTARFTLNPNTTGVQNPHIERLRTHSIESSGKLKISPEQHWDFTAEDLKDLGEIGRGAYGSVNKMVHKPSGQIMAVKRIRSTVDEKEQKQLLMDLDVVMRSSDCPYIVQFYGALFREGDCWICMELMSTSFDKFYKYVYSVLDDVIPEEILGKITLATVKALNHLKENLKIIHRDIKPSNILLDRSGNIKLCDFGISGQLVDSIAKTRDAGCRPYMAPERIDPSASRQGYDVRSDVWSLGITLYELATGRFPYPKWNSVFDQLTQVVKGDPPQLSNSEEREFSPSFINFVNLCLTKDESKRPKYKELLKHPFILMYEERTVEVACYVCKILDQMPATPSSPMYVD
Procedure: In addition to activated MAP2K4, the in vitro kinase assay used either kinase dead JNK1-K55M (Abcam # ab95248) or kinase dead p38α MAPK-K53A (generously provided by Dr. Martin Watterson, Northwestern) as the substrate, ATP (Cell Signaling) and kinase assay buffer (25 mM Tris-HCl (pH 7.5), 5 mM beta-glycerophosphate, 2 mM dithiothreitol (DTT), 0.1 mM Na3VO4, 10 mM MgCl2). […] Geraldol, 2′,4′-dihydroxychalcone and 3,2′-dihyrdoxy-4,4′,6′-trimethoxychalcone were purchased from Indofine Chemical Company. All other compounds were purchased from Sigma-Aldrich. To tubes containing 13 µl of 1.5X buffer on ice the assay reagents were added as indicated for a final reaction volume of 20 µL: 25 ng of MAP2K4-AC (stocks of 25 ng/uL were prepared and aliquoted from a 10 ug vial after the supplier concentration was verified using a Nanodrop 1000), inhibitors as denoted (from DMSO stock solutions), 1 µM final ATP, and 1 µg of JNK1 or p38 MAPK. […] All kinase assays were performed twice at separate times.
(§1) Twenty µl of reaction mixtures were separated by sodium dodecyl sulfate-polyacrylamide gel electrophoresis using precast 4–20% gradient gels (Biorad), per the manufacturers' instructions, and transferred onto 0.45 µm nitrocellulose membranes (Biorad). […] Bands were visualized with the aid of chemiluminescence reagents (GE Healthcare) after hybridization with a HRP conjugated rabbit secondary antibody (GE Healthcare). […] The bands were quantified using ImageJ software; normalized inhibitor-response data were plotted using Prism 6 to determine relative IC50 values.

[3] = molecular target: T2, MAP3K1 activated murine MAP2K4 (MAP2K4-AC); assay: In vitro MAP2K4 kinase assay, JNK1 (K55M) substrate, Western blot densitometry; assay type: biochemical
Procedure: In addition to activated MAP2K4, the in vitro kinase assay used either kinase dead JNK1-K55M (Abcam # ab95248) or kinase dead p38α MAPK-K53A (generously provided by Dr. Martin Watterson, Northwestern) as the substrate, ATP (Cell Signaling) and kinase assay buffer (25 mM Tris-HCl (pH 7.5), 5 mM beta-glycerophosphate, 2 mM dithiothreitol (DTT), 0.1 mM Na3VO4, 10 mM MgCl2). […] All other compounds were purchased from Sigma-Aldrich. To tubes containing 13 µl of 1.5X buffer on ice the assay reagents were added as indicated for a final reaction volume of 20 µL: 25 ng of MAP2K4-AC (stocks of 25 ng/uL were prepared and aliquoted from a 10 ug vial after the supplier concentration was verified using a Nanodrop 1000), inhibitors as denoted (from DMSO stock solutions), 1 µM final ATP, and 1 µg of JNK1 or p38 MAPK. […] All kinase assays were performed twice at separate times.
as §1

[4] = molecular target: T1, human MAP2K4-EE; assay: Fluorescence-based thermal shift (FTS) assay; assay type: binding; conditions: 1 mM ligand
[5] = system: human PCa cells; design: method as in PMID 18339885; conditions: orthotopically implanted into mice; cited from earlier work
[6] = system: MMP-2 expression; design: method as in PMID 19638505; conditions: prospective administration to humans; cited from earlier work
[7] = kinase dead p38α MAPK-K53A substrate, 1 µM ATP, mean (95% confidence intervals), read-out: IC50-p38
[8] = kinase dead JNK1-K55M substrate, 1 µM ATP, mean (95% confidence intervals), read-out: IC50-JNK1

Row | Compound | ΔTm at 10 µM ([1]; n = 3, 10 µM) | ΔTm at 10 µM ([1]; n = 3, read-out: ΔTm at 10 µM) | IC50 [2, 7] | also measured
1 | Nc1ncnc2c1c(I)cn2[C@@H]1O[C@H](CO)[C@@H](O)[C@H]1O [5-iodotubercidin] | 4.29±0.07 °C | 4.3 °C | 0.2 µM | IC50 [3, 8]: 2.8 µM
2 | COc1cc(/C=C(\C#N)C(N)=O)cc(CSc2nc3ccccc3s2)c1O [AG825] | 2.26±0.15 °C | 2.3 °C | 28.5 µM | IC50 [3, 8]: 25 µM
3 | Nc1ncnc2c1ncn2[C@@H]1O[C@H](COP(=O)(O)OP(=O)(O)NP(=O)(O)O)[C@@H](O)[C@H]1O [AMP-PNP] | – | – | – | shift in Tm (ΔTm) [4]: highest ΔTm values
4 | Nc1ncnc2c1ncn2[C@@H]1O[C@H](COP(=O)(O)OP(=O)(O)OP(=O)(O)O)[C@@H](O)[C@H]1O [ATP] | – | – | – | shift in Tm (ΔTm) [4]: > 10 °C
5 | O=C1c2ccccc2C(=O)c2c1ccc(O)c2O [Alizarin, 1,2-dihydroxyanthraquinone] | – | – | – | IC50 [2]: 0.9 µM
6 | O=c1c(-c2ccc(O)cc2)coc2cc(O)ccc12 [Daidzein] | – | – | – | thermal stabilization of MAP2K4 (concentration dependent thermal shift) ([1]; 1, 10 and 25 µM): no such thermal stabilization effect; inhibition of MAP2K4 activity ([2]; concentrations of up to 200 µM, p38 MAPK (K53A) or JNK1 (K55M) substrates): does not inhibit
7 | COc1cc(-c2oc3cc(O)ccc3c(=O)c2O)ccc1O [Geraldol, 3,4′,7-Trihydroxy-3′-methoxyflavone] | – | – | – | IC50 [2]: 0.8 µM
8 | NCC(=O)O [L-glycine] | – | – | – | shift in Tm (ΔTm) [4]: did not induce thermal stability
9 | Cc1ccc(-c2nn(C(C)(C)C)c3ncnc(N)c23)cc1 [PP1] | 2.55±0.03 °C | 2.5 °C | – | IC50 [3]: 16.9 µM; IC50 [2]: 13.8 µM
10 | CC(C)(C)n1nc(-c2ccc(Cl)cc2)c2c(N)ncnc21 [PP2] | 2.33±0.04 °C | 2.3 °C | – | IC50 [3]: 22.3 µM; IC50 [2]: 39.9 µM
11 | O=C(CCc1ccc(O)cc1)c1c(O)cc(O)cc1O [Phloretin] | 2.69±0.33 °C | 2.7 °C | – | –
12 | O=c1c(O)c(-c2ccc(O)c(O)c2)oc2cc(O)cc(O)c12 [Quercetin] | – | 2.75 ± 0.22 °C | 2 µM | IC50 [3, 8]: 1.7 µM
13 | O=c1c(-c2ccc(O)cc2)coc2cc(O)cc(O)c12 [genistein, 4,5,7-trihydroxyisoflavone] | – | – | – | metastasis of human PCa cells [5]: inhibits the metastasis; MMP-2 expression in prostate tissue [6]: selectively decreases MMP-2 expression

Second part, led by results:

Row | ΔTm at 10 µM ([1]; n = 3, 10 µM) | ΔTm at 10 µM ([1]; n = 3, read-out: ΔTm at 10 µM) | IC50 [2, 7] | Compound | also measured
14 | 3.67±0.50 °C | 3.7 °C | 16.9 µM | O=C(/C=C/c1ccccc1)c1ccc(O)cc1O [2′,4′-dihydroxychalcone] | –
15 | 2.55±0.20 °C | 2.5 °C | 0.8 µM | O=c1c(O)c(-c2ccccc2)oc2cc(O)ccc12 [3,7-dihydroxyflavone] | –
16 | – | 2.8 ± 0.23 °C | 15.9 µM | O=c1cc(-c2ccc(O)cc2)oc2cc(O)cc(O)c12 [Apigenin] | IC50 [3, 8]: 20.1 µM
17 | 1.78±0.42 °C | 1.8 °C | 10.1 µM | O=c1cc(-c2ccccc2)oc2cc(O)cc(O)c12 [Chrysin, 5,7-dihydroxyflavone] | –
18 | 6.4±0.06 °C | > 4 °C | 0.4 µM | O=C1c2ccccc2-c2n[nH]c3cccc1c23 [SP600125] | IC50 [3, 8]: 0.7 µM
